# Assay: Agglomerate inhibition in stirred autoclave (water/white spirit/natural gas)
# Settings: 5000 ppm based on water phase; water and white spirit 1:2; 50 bar; 500 rpm; 4° C.
# Method: (§1) To investigate the inhibiting action of the 1-alkyl-5-oxopyrrolidine-3-carboxylic esters, a stirred steel autoclave with temperature control, pressure and torque sensor of capacity 450 ml was used. For studies of kinetic inhibition, the autoclave was filled with distilled water and gas in a volume ratio of 20:80; for studies of agglomerate inhibition, condensate was additionally added. Subsequently, 50 bar of natural gas were injected.
# (§2) The measure used for the inhibiting action of the product is the time from the attainment of the minimum temperature of 4° C. until the first gas absorption (Tind) or the time until the torque rises (Tagg). Long induction times or agglomeration times indicate an effect as a kinetic inhibitor. The torque measured in the autoclave serves, in contrast, as a parameter for the agglomeration of the hydrate crystals.
# In order to test the action as agglomerate inhibitors, the test autoclave used above was initially charged with water and white spirit (20% of the volume in a ratio of 1:2) and, based on the water phase, 5000 ppm of the particular additive were added.
# At an autoclave pressure of 50 bar and a stirrer speed of 500 rpm, the temperature was cooled from initially 20° C. within 3 hours to 4° C., then the autoclave was stirred at 4° C. for 18 hours and heated up again. In the course of this, the agglomeration time up to occurrence of gas hydrate agglomerates and the torque which occurred on the stirrer at that time were measured, the latter being a measure of the agglomeration of the gas hydrates.
# The comparative substance employed was a commercially available antiagglomerant (quaternary ammonium salt).
Compound,Mmax (torque on the stirrer) [Ncm],Tagg (agglomeration time up to occurrence of gas hydrate agglomerates) [h]
"CCCCCCCC/C=C\CCCCCCCCN1CC(C(=O)OCC(C)C)CC1=O (stereo not shown) [Example 19, isobutyl 1-oleyl-5-oxopyrrolidine-3-carboxylate]",1.2,6.0
"CCCCCCCC/C=C\CCCCCCCCN1CC(C(=O)OCC(CC)CCCC)CC1=O (stereo not shown) [Example 20, 2-ethylhexyl 1-oleyl-5-oxopyrrolidine-3-carboxylate]",2.1,3.5
"CCCCCCCC/C=C\CCCCCCCCN1CC(C(=O)OCC(COC(=O)C2CC(=O)N(CCCCCCCC/C=C\CCCCCCCC)C2)OC(=O)C2CC(=O)N(CCCCCCCC/C=C\CCCCCCCC)C2)CC1=O (stereo not shown) [Example 21, glyceryl tri(1-oleyl-5-oxopyrrolidine-3-carboxylate)]",2.0,2.9
"CCCCCCCC/C=C\CCCCCCCCN1CC(C(=O)OCC(CO)(CO)COC(=O)C2CC(=O)N(CCCCCCCC/C=C\CCCCCCCC)C2)CC1=O (stereo not shown) [Example 22, pentaerythrityl di(1-oleyl-5-oxopyrrolidine-3-carboxylate)]",1.9,3.8
"CCCCCCCC/C=C\CCCCCCCCN1CC(C(=O)OCC(CO)(COCC(CO)(COC(=O)C2CC(=O)N(CCCCCCCC/C=C\CCCCCCCC)C2)COC(=O)C2CC(=O)N(CCCCCCCC/C=C\CCCCCCCC)C2)COC(=O)C2CC(=O)N(CCCCCCCC/C=C\CCCCCCCC)C2)CC1=O (stereo not shown) [Example 23, dipentaerythrityl tetra(1-oleyl-5-oxopyrrolidine-3-carboxylate)]",2.0,3.8
(oleyl alcohol+5 EO) 1-isobutyl-5-oxopyrrolidine-3-carboxylate [Example 16],1.0,5.9
(oleyl alcohol+5 EO) 1-methyl-5-oxopyrrolidine-3-carboxylate [Example 7],0.9,6.5

# Assay: Biodegradability to OECD 306
# Settings: not given
row,Compound,Biodegradability 28 days (OECD 306)
1,"CN1CC(C(=O)OCC(COC(=O)C2CC(=O)N(C)C2)OC(=O)C2CC(=O)N(C)C2)CC1=O (stereo not shown) [Example 3, glyceryl tri(1-methyl-5-oxopyrrolidine-3-carboxylate)]",90
2,"CC(C)CN1CC(C(=O)OCC(COC(=O)C2CC(=O)N(CC(C)C)C2)OC(=O)C2CC(=O)N(CC(C)C)C2)CC1=O (stereo not shown) [Example 12, glyceryl tri(1-isobutyl-5-oxopyrrolidine-3-carboxylate)]",85

# Assay: Kinetic gas hydrate inhibition in stirred steel autoclave (water/natural gas)
# Settings: 5000 ppm based on water phase; 50 bar natural gas; cooled 20° C. to 4° C.; water:gas 20:80
# Method: as §1
# At first, a pressure decrease corresponding to the thermal compression of the gas is observed. When the formation of gas hydrate nuclei occurs during the cooling time, the pressure measured falls, and a rise in the torque measured and a slight increase in the temperature are observed. […] When the mixture is heated, the gas hydrates decompose, so that the starting state of the experimental series is attained.
# as §2
# Composition of the natural gas used:
# The dosage in all tests was 5000 ppm based on the water phase.
Compound,Tagg (time until the torque rises) [h],Tind (time from attainment of 4° C. until first gas absorption) [h]
"CC(C)COC(=O)C1CC(=O)N(C)C1 (stereo not shown) [Example 1, isobutyl 1-methyl-5-oxopyrrolidine-3-carboxylate]",11.0,10.9
"CCCCC(CC)COC(=O)C1CC(=O)N(C)C1 (stereo not shown) [Example 2, 2-ethylhexyl 1-methyl-5-oxopyrrolidine-3-carboxylate]",11.7,11.5
"CN1CC(C(=O)OCC(COC(=O)C2CC(=O)N(C)C2)OC(=O)C2CC(=O)N(C)C2)CC1=O (stereo not shown) [Example 3, glyceryl tri(1-methyl-5-oxopyrrolidine-3-carboxylate)]",12.5,12.0
"CN1CC(C(=O)OCC(CO)(CO)COC(=O)C2CC(=O)N(C)C2)CC1=O (stereo not shown) [Example 4, pentaerythritol di(1-methyl-5-oxopyrrolidine-3-carboxylate)]",11.5,11.4
"CN1CC(C(=O)OCC(CO)(COCC(CO)(COC(=O)C2CC(=O)N(C)C2)COC(=O)C2CC(=O)N(C)C2)COC(=O)C2CC(=O)N(C)C2)CC1=O (stereo not shown) [Example 5, dipentaerythrityl tetra(1-methyl-5-oxopyrrolidine-3-carboxylate)]",10.1,10.0
"CCCCOCCOCCOCCOC(=O)C1CC(=O)N(C)C1 (stereo not shown) [Example 6, butyltriglycol 1-methyl-5-oxopyrrolidine-3-carboxylate]",13.4,13.1
"CC(C)COC(=O)C1CC(=O)N(CC(C)C)C1 (stereo not shown) [Example 10, isobutyl 1-isobutyl-5-oxopyrrolidine-3-carboxylate]",17.0,16.1
"CCCCC(CC)COC(=O)C1CC(=O)N(CC(C)C)C1 (stereo not shown) [Example 11, 2-ethylhexyl 1-isobutyl-5-oxopyrrolidine-3-carboxylate]",18.3,17.5
"CC(C)CN1CC(C(=O)OCC(COC(=O)C2CC(=O)N(CC(C)C)C2)OC(=O)C2CC(=O)N(CC(C)C)C2)CC1=O (stereo not shown) [Example 12, glyceryl tri(1-isobutyl-5-oxopyrrolidine-3-carboxylate)]",18.8,18.1
"CC(C)CN1CC(C(=O)OCC(CO)(CO)COC(=O)C2CC(=O)N(CC(C)C)C2)CC1=O (stereo not shown) [Example 13, pentaerythrityl di(1-isobutyl-5-oxopyrrolidine-3-carboxylate)]",17.4,16.9
"CCCCOCCOCCOCCOC(=O)C1CC(=O)N(CC(C)C)C1 (stereo not shown) [Example 15, butyltriglycol 1-isobutyl-5-oxopyrrolidine-3-carboxylate]",17.2,16.1
dipentaerythrityl tetra(1-isobutyl-5-oxopyrrolidine-3-carboxylate) [Example 14],15.9,15.3
